Laboratory results: US11028095B2, “Spiro-lactam and bis-spiro-lactam NMDA receptor modulators and uses thereof” (Aptinyx Inc., priority 2016, dated 2021)

Columns and labels:
Type in all cases: biochemical
[1] = target: T1, NMDAR2A expressing HEK cell membranes (Homo sapiens, UniProt Q12879); assay: NMDAR agonist assay, [3H]MK-801 binding, NMDAR2A; details: 50 μM glutamate; for EC50: [3H]MK-801 binding, read-out: NMDAR2A: log EC50 (converted)
T1 construct: expressed in transfected cells; host or cells: HEK cells (membrane extract)
Method: (§1) (nonequilibrium conditions).
(§2) The baseline value was determined from the best fit curve of the DPM values modeled using the GraphPad program and the log(agonist) vs. response(three parameters) algorithm was then subtracted from all points in the dataset.

[2] = target: T2, NMDAR2B expressing HEK cell membranes (Homo sapiens, UniProt Q13224); assay: NMDAR agonist assay, [3H]MK-801 binding, NMDAR2B; details: 50 μM glutamate; for EC50: [3H]MK-801 binding, read-out: NMDAR2B log EC50 (converted)
T2 construct: expressed in transfected cells; host or cells: HEK cells (membrane extract)
Method: as §1, §2

[3] = target: T3, NMDAR2B expressing HEK cell membranes (Homo sapiens, UniProt Q05586+Q13224); assay: NMDAR agonist assay, [3H]MK-801 binding, NMDAR2B; details: 50 μM glutamate; for EC50: [3H]MK-801 binding, read-out: NMDAR2B log EC50 (converted); for Emax: relative to 1 mM glycine, read-out: NMDAR2B: % maximal [3H]MK-801 binding relative to 1 mM glycine
T3 construct: expressed in transfected cells; host or cells: HEK cells (membrane extract)
Method: as §1, §2

[4] = target: T4, NMDAR2A expressing HEK cell membranes (Homo sapiens, UniProt Q05586+Q12879); assay: NMDAR agonist assay, [3H]MK-801 binding, NMDAR2A; details: 50 μM glutamate; [3H]MK-801 binding; read-out: NMDAR2A: log EC50 (converted)
T4 construct: expressed in transfected cells; host or cells: HEK cells (membrane extract)
Method: as §1, §2

T2 sequence (Q13224 27-1484, other chains not shown): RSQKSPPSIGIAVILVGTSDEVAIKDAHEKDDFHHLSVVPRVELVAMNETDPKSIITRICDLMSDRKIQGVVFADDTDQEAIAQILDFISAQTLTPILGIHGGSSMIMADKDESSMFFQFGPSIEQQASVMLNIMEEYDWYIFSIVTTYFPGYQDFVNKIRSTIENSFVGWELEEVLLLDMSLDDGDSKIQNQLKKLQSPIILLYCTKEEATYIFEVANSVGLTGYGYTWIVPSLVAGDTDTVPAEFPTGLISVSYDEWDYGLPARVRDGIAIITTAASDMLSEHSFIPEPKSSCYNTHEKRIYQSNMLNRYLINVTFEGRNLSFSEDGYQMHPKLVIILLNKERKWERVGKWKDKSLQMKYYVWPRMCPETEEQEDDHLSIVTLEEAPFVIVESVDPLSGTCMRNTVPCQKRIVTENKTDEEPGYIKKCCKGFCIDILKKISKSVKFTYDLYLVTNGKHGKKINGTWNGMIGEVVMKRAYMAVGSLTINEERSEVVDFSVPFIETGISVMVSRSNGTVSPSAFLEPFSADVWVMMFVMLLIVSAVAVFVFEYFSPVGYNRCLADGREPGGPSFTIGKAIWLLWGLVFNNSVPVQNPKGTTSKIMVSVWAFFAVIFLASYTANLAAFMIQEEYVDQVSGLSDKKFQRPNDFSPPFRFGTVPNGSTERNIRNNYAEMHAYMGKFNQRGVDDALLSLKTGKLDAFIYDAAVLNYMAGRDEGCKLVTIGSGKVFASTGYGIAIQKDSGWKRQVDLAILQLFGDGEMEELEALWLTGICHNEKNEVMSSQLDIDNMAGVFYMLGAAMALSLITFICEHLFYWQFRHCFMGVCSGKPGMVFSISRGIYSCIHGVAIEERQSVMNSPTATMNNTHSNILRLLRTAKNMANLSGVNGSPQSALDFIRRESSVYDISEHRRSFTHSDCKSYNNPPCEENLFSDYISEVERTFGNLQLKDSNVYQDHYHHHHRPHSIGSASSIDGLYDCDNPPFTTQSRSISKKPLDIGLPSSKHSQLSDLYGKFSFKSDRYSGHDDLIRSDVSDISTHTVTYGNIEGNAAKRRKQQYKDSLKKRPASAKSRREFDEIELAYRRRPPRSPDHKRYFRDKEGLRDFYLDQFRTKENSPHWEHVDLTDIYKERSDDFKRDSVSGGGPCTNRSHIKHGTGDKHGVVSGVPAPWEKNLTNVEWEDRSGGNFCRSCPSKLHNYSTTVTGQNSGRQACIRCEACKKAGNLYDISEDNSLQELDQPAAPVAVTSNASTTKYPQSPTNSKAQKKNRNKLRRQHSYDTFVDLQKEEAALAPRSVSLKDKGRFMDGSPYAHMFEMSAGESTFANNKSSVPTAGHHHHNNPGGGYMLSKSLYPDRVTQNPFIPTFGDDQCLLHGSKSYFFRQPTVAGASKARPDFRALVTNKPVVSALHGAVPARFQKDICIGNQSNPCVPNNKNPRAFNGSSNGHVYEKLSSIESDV
T3 sequence (Q13224 27-1484, other chains not shown): as above
T1 sequence (Q12879 23-1464, other chains not shown): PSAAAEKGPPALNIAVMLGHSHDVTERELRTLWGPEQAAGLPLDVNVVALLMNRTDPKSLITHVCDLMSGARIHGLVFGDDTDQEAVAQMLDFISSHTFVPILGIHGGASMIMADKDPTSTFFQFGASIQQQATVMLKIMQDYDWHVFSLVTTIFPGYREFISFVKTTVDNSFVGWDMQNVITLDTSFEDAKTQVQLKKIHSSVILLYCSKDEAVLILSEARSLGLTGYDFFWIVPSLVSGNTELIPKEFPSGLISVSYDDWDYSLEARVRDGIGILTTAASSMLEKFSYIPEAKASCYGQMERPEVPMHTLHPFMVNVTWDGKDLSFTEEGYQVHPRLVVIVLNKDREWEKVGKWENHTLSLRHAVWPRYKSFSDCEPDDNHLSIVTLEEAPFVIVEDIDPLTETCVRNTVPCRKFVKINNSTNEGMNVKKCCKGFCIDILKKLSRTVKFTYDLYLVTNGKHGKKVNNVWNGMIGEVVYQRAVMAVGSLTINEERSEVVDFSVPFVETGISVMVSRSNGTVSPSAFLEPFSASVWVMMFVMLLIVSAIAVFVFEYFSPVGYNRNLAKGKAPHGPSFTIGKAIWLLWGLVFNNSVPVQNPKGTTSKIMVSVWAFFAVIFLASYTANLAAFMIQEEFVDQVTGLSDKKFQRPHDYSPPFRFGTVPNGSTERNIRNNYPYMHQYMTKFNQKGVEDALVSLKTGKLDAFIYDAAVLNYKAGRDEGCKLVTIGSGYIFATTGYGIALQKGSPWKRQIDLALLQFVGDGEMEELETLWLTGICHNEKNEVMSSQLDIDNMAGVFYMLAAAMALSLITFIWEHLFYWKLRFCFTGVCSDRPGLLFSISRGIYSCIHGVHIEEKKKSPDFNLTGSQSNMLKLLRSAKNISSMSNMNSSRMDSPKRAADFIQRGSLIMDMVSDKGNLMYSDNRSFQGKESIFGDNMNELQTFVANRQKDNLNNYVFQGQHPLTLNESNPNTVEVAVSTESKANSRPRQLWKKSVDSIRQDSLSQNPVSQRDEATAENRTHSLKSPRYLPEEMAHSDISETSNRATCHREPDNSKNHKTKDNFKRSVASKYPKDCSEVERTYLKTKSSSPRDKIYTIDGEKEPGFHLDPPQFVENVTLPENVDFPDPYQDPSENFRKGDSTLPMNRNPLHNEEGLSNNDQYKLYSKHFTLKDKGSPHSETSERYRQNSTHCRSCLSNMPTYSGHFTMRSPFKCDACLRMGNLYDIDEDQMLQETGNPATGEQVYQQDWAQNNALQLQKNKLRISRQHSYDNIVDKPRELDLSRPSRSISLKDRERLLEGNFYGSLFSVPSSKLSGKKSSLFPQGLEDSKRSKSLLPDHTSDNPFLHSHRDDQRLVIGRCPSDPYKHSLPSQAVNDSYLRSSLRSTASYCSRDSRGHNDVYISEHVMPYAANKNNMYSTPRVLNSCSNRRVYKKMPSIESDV

NMDAR2A: % maximal [3H]MK-801 binding relative to 1 mM glycine [1]	EC50 [2]	NMDAR2B: % maximal [3H]MK-801 binding relative to 1 mM glycine [2]	EC50 [1]	EC50 [3]	EC50 [4]	Emax [3]	Structure (SMILES)
+ (<100%=+)	> 100 nM	− (−=0)					CC(C)(C)OC(=O)N1C2(CCC13CNC3=O)CNC2=O (single isomer, unassigned) [AA-2, tert-butyl 1,7-dioxo-2,5,8-triazadispiro[3.1.36.24]undecane-5-carboxylate]
− (−=0)	> 100 nM	− (−=0)	> 100 nM				CC(C)(C)OC(=O)N1C2(CCC13CNC3=O)CNC2=O (single isomer, unassigned) [AA-3, tert-butyl 1,7-dioxo-2,5,8-triazadispiro[3.1.36.24]undecane-5-carboxylate]
+ (<100%=+)		− (−=0)	< 1 nM	> 100 nM			CC(C)C(=O)N1C2(CCC13CNC3=O)CNC2=O (single isomer, unassigned) [AI, 5-isobutyryl-2,5,8-triazadispiro[3.1.36.24]undecane-1,7-dione]
+ (<100%=+)	< 1 nM	+ (<100%=+)			< 1 nM		C[C@@H](O)[C@H](NC(=O)C1CCC2(CNC2=O)N1C)C(N)=O (single isomer, unassigned) [BD]
+ (<100%=+)					< 1 nM	< 100%	CC(C)(C)OC(=O)N1C(C(N)=O)CCC12CN(OCc1ccccc1)C2=O (single isomer, unassigned) [BG, tert-butyl 2-(benzyloxy)-6-carbamoyl-1-oxo-2,5-diazaspiro[3.4]octane-5-carboxylate]
− (−=0)	> 100 nM	− (−=0)			> 100 nM		C[C@@H](O)[C@H](NC1CN(C(=O)OC(C)(C)C)C2(CNC2=O)C1)C(N)=O (single isomer, unassigned) [CH]
+ (<100%=+)	< 1 nM	+ (<100%=+)	< 1 nM				CC(C)CN1C(C(N)=O)CCC12CNC2=O (single isomer, unassigned) [DD, 5-isobutyl-1-oxo-2,5-diazaspiro[3.4]octane-6-carboxamide]
	< 1 nM		< 1 nM				NC(=O)C1CCC2(CNC2=O)N1Cc1ccccc1 (single isomer, unassigned) [DF, 5-benzyl-1-oxo-2,5-diazaspiro[3.4]octane-6-carboxamide]
+ (<100%=+)		++ (>100%=++)	< 1 nM	< 1 nM			NC(=O)C1CCC2(CNC2=O)N1Cc1ccc(F)cc1 (single isomer, unassigned) [DH, 5-(4-fluorobenzyl)-1-oxo-2,5-diazaspiro[3.4]octane-6-carboxamide]
+ (<100%=+)				< 1 nM	< 1 nM	< 100%	O=C1NCC12CN(Cc1ccc(F)cc1)C1(CNC1=O)C2 (single isomer, unassigned) [DK, 10-(4-fluorobenzyl)-2,8,10-triazadispiro[3.1.3^6.2^4]undecane-1,7-dione]
− (−=0)	< 1 nM	+ (<100%=+)			> 100 nM		O=C1NCC12CN(Cc1ccc(F)cc1)C1(CNC1=O)C2 (single isomer, unassigned) [DL, 10-(4-fluorobenzyl)-2,8,10-triazadispiro[3.1.3^6.2^4]undecane-1,7-dione]
− (−=0)				> 100 nM	> 100 nM	0%	CC(C)(C)OC(=O)N1C2(CCC13CNC3=O)CNC2=O (stereo not shown) [AA-1, tert-butyl 1,7-dioxo-2,5,8-triazadispiro[3.1.36.24]undecane-5-carboxylate]

Further lines, the compound ahead of its results:

Structure (SMILES)	NMDAR2A: % maximal [3H]MK-801 binding relative to 1 mM glycine [1]	EC50 [2]	NMDAR2B: % maximal [3H]MK-801 binding relative to 1 mM glycine [2]	EC50 [1]	EC50 [3]	EC50 [4]	Emax [3]
C[C@@H](O)[C@H](NC(=O)C1CCC2(CNC2=O)N1Cc1ccccc1)C(N)=O (single isomer, unassigned) [AL-2]	+ (<100%=+)		− (−=0)		> 100 nM		
CC(C)CN1C(C(=O)N[C@H](C(N)=O)[C@@H](C)O)CCC12CNC2=O (single isomer, unassigned) [BB]	+ (<100%=+)		+ (<100%=+)		< 1 nM		
CNC(=O)[C@@H](NCC1CCC2(CN(OCc3ccccc3)C2=O)N1C(=O)OC(C)(C)C)[C@@H](C)O (single isomer, unassigned) [BN]		> 100 nM		> 100 nM			
C[C@@H](O)[C@H](NCC1CCC2(CN(OCc3ccccc3)C2=O)N1C(=O)OC(C)(C)C)C(=O)N(C)C (single isomer, unassigned) [BQ]	− (−=0)				< 1 nM	> 100 nM	< 100%
C[C@@H](O)[C@H](NCC1CCC2(CN(OCc3ccccc3)C2=O)N1C(=O)OC(C)(C)C)C(=O)N(C)C (single isomer, unassigned) [BR]	+ (<100%=+)		++ (>100%=++)			< 1 nM	
CC(O)C(NCC1CCC2(CN(OCc3ccccc3)C2=O)N1)C(N)=O (single isomer, unassigned) [CK]	− (−=0)				< 1 nM	> 100 nM	< 100%
CC(O)C(NCC1CCC2(CN(OCc3ccccc3)C2=O)N1)C(N)=O (single isomer, unassigned) [CL]	+ (<100%=+)	< 1 nM	+ (<100%=+)			< 1 nM	
CC(O)C(NCC1CCC2(CNC2=O)N1)C(N)=O (single isomer, unassigned) [CN]	++ (>100%=++)	< 1 nM	+ (<100%=+)	< 1 nM			
CNC(=O)C(NCC1CCC2(CN(OCc3ccccc3)C2=O)N1)C(C)O (single isomer, unassigned) [CP]		< 1 nM		< 1 nM			
CNC(=O)C(NCC1CCC2(CNC2=O)N1)C(C)O (single isomer, unassigned) [CQ]	− (−=0)				< 1 nM	> 100 nM	> 100%
CNC(=O)C(NCC1CCC2(CNC2=O)N1)C(C)O (single isomer, unassigned) [CR]	+ (<100%=+)	< 1 nM	++ (>100%=++)			< 1 nM	
CC(O)C(C(N)=O)N(C)CC1CCC2(CN(OCc3ccccc3)C2=O)N1 (single isomer, unassigned) [CS]	− (−=0)	< 1 nM	+ (<100%=+)			> 100 nM	
CC(O)C(C(N)=O)N(C)CC1CCC2(CN(OCc3ccccc3)C2=O)N1 (single isomer, unassigned) [CT]	+ (<100%=+)				< 1 nM	< 1 nM	< 100%
CC(O)C(C(N)=O)N(C)CC1CCC2(CNC2=O)N1 (single isomer, unassigned) [CU]	− (−=0)					> 100 nM	> 100%
CNC(=O)C(C(C)O)N(C)CC1CCC2(CN(OCc3ccccc3)C2=O)N1 (single isomer, unassigned) [CX]	+ (<100%=+)	< 1 nM	++ (>100%=++)	< 1 nM			
NC(=O)C1CCC2(CN(OCc3ccccc3)C2=O)N1 (single isomer, unassigned) [CZ, 2-(benzyloxy)-1-oxo-2,5-diazaspiro[3.4]octane-6-carboxamide]				< 1 nM			
